Measurements: patent US20230330178A1, “USE OF POLYPEPTIDE IN DRUG FOR PREVENTING AND TREATING PNEUMONIA” (priority 2020, published 2023)
Where two headings read alike, the source gives them in different places.

Tests used:
[1] = test system: models of pneumonia in rats induced by mixed bacteria solution of Staphylococcus aureus, Streptococcus pneumoniae, and Escherichia coli; assay: Lung function test in rat pneumonia model induced by mixed bacteria; type: in vivo, SD rats
Description: (§1) Bacterial pneumonia is the most common pneumonia, is also one of the most common infectious diseases, and is caused by bacterial infection. Main pathogenic bacteria of the bacterial pneumonia include Streptococcus pneumoniae, Staphylococcus aureus, Escherichia coli, and the like, which pose a great threat to the health of children and the elderly. In this experiment, a mixed bacteria solution of Staphylococcus aureus, Streptococcus pneumoniae, and Escherichia coli was instilled into the trachea to induce models of pneumonia in rats. Pharmacodynamic effects of a peptide on pneumonia were evaluated by observing effects of the peptide inhaled through the nose and mouth on the models of pneumonia caused by mixed bacteria infection.
(§2) 80 SD rats, SPF grade, half male and half female, were selected and randomly divided into 8 groups according to sex and body weight, including 6 rats in each of a blank control group and a model evaluation group, 8 rats in a blank administration group, and 12 rats in each of a model control group, an erythromycin group, a budesonide group, a low-dose polypeptide treatment group, and a high-dose polypeptide treatment group.
(§3) Animals in the blank administration group were not modeled, and inhaled a high-concentration polypeptide aerosol (0.48 mg/L) through nose and mouth every day. Animals in the blank control group were instilled with a 0.5 mL 0.9% sodium chloride injection through trachea. After the remaining groups were slightly anesthetized with ether, the model control group, the erythromycin group, the budesonide group, the low-dose polypeptide treatment group, and the high-dose polypeptide treatment group were instilled with a 1×10^8 CFU/mL mixed bacteria solution of Staphylococcus aureus, Streptococcus pneumoniae, and Escherichia coli through trachea, 0.5 mL/rat, respectively, and the blank control group was instilled with a 0.9% sodium chloride injection of a same volume.
(§4) A specific modeling method was as follows: a rat was anesthetized by ether inhalation and lied on an anatomical plate at an angle of 30-45°, trachea of the rat was exposed under an otoscope, a long puncture needle was connected to a 1 mL syringe and inserted into the trachea, each rat was injected with 0.5 mL of mixed bacteria, the puncture needle was pulled out after the injection, the rat was still kept at the original tilt position for about 10 min, and the bacteria solution flowed into bronchus and alveoli due to gravity to cause infection, so as to induce a rat pneumonia model.
(§5) Each group was administrated for the first time at 2 h after modeling. After the experiment begun, 7.16 mg/mL and 71.6 mg/mL peptide solutions were atomized into aerosol particles with target concentrations of 0.07 and 0.48 mg/L every day, and the animals in the low-dose peptide treatment group and the high-dose peptide treatment group (0.54 mg/kg and 3.7 mg/kg, corresponding to drug concentrations 0.07 and 0.48 mg/L respectively) inhaled the aerosol particles with corresponding concentrations through mouth and nose respectively for 7 consecutive days, 10 min/time, 3 times a day; the blank administration group (cumulative dose 22.2 mg/kg, corresponding to a drug concentration 0.48 mg/L) inhaled 0.48 mg/L peptide aerosol particles through mouth and nose every day for 7 consecutive days, 20 min/time, 3 times a day; the blank control group and the model control group inhaled a 0.9% sodium chloride solution for the same time according to the same method; the erythromycin group and the budesonide group were administrated with a 5 mg/mL erythromycin solution and a 0.05 mg/mL budesonide suspension respectively for the same time according to the same method; and body weight of each group was tested every day.

[2] = test system: models of pneumonia in rats induced by mixed bacteria solution of Staphylococcus aureus, Streptococcus pneumoniae, and Escherichia coli; assay: Arterial blood gas in rat pneumonia model induced by mixed bacteria; type: in vivo, SD rats; settings: for PaCO2: partial pressure of carbon dioxide / PaO2: partial pressure of oxygen / arterial blood pH: pneumonia model rats, erythromycin 5 mg/mL solution (18 mg/kg) inhaled
Description: as §1, §2, §3, §4
as §5, with “day. […]” for “day.”

[3] = test system: models of pneumonia in rats induced by mixed bacteria solution of Staphylococcus aureus, Streptococcus pneumoniae, and Escherichia coli; assay: Pathological test of lung tissue (HE) in rat pneumonia model; type: in vivo, SD rats; settings: erythromycin 5 mg/mL solution (18 mg/kg) inhaled
Description: as §1, §2
Animals in the blank administration group were not modeled, and inhaled a high-concentration polypeptide aerosol (0.48 mg/L) through nose and mouth every day. […]

[4] = test system: Staphylococcus aureus; assay: animal or person; type: in vivo; settings: erythromycin 5 mg/mL solution (18 mg/kg) inhaled; for Number of staphylococcus aureus: lung tissue of pneumonia model rats; for inhibition at 5000 µg/mL, 18 mg/kg: Staphylococcus aureus, in Rattus norvegicus, inhaled or nasal, vs model control group
Procedure: as §3, §4, §5
(§6) Except the blank administration group, half animals of the remaining groups were randomly selected for lung function test, gross anatomy examination, and pathological test on D4 day, and lungs of 3 animals in each group were selected for bacteria culture and counting; and on D8 day, the remaining animals were subjected to lung function test, gross anatomy examination, and pathological test, and lungs of 3 animals in each group were selected for bacteria culture and counting (the blank control group and the blank administration group were not examined).
(§7) Experimental steps of bacteria culture: except the blank administration group, six animals were randomly selected from each of the remaining groups (three animals were randomly selected from the first and last anatomies), left middle lobe lung tissues were taken, washed with 0.9% sodium chloride injection, added with double weight of 0.9% sodium chloride injection, and ground into homogenate, the homogenate was inoculated into a meat extract agar medium and cultured at 37° C. for 16 to 18 h, bacteria were isolated, and each isolated bacteria suspension was diluted to 10^−1, 10^−2, 10^−3, 10^−4, 10^−5, 10^−6, 10^−7 and 10^−8 according to 10 times gradient, namely, 9 mL normal saline plus 1 mL bacteria suspension was 10^−1, and so on. […]

[5] = test system: Escherichia coli; assay: animal or person; type: in vivo; settings: erythromycin 5 mg/mL solution (18 mg/kg) inhaled; for Number of escherichia coli: lung tissue of pneumonia model rats; for inhibition at 5000 µg/mL, 18 mg/kg: Escherichia coli, in Rattus norvegicus, inhaled or nasal, vs model control group
Procedure: as §3, §4, §5, §6, §7

[6] = test system: Streptococcus pneumoniae; assay: animal or person; type: in vivo; settings: erythromycin 5 mg/mL solution (18 mg/kg) inhaled; for Number of streptococcus pneumoniae: lung tissue of pneumonia model rats; for inhibition at 5000 µg/mL, 18 mg/kg: Streptococcus pneumoniae, in Rattus norvegicus, inhaled or nasal, vs model control group
Procedure: as §3, §4, §5, §6, §7

[7] = D4, erythromycin 5 mg/mL solution (18 mg/kg) inhaled
[8] = D8, erythromycin 5 mg/mL solution (18 mg/kg) inhaled

## CC[C@H]1OC(=O)[C@H](C)[C@@H](O[C@H]2C[C@@](C)(OC)[C@@H](O)[C@H](C)O2)[C@H](C)[C@@H](O[C@@H]2O[C@H](C)C[C@H](N(C)C)[C@H]2O)[C@](C)(O)C[C@@H](C)C(=O)[C@H](C)[C@@H](O)[C@]1(C)O [Erythromycin, erythromycin]
[1]; [7]
  FEV200 (forced expiratory volume): 2.84 ± 0.54 mL
  FEV200/FVC: 90.65 ± 4.78 %
  FVC: forced vital capacity: 3.12 ± 0.52 mL
  VT: tidal volume: 1.59 ± 0.39 mL
  f: respiratory rate: 132 ± 27 time/min
[1]; [8]
  FEV200 (forced expiratory volume): 3.40 ± 0.12 mL
  FEV200/FVC: 92.36 ± 2.94 %
  FVC: forced vital capacity: 3.68 ± 0.20 mL
  VT: tidal volume: 1.67 ± 0.24 mL
  f: respiratory rate: 130 ± 25 time/min
[2]; D4
  PaCO2: partial pressure of carbon dioxide: 50.38 ± 6.60 mmHg
  PaO2: partial pressure of oxygen: 69.68 ± 15.16 mmHg
  arterial blood pH: 7.33 ± 0.05
[2]; D8, erythromycin group (18 mg/kg), no statistical difference
  PaO2 increase vs model control group: 37.17%
[2]; D8
  PaCO2: partial pressure of carbon dioxide: 39.37 ± 5.60 mmHg
  PaO2: partial pressure of oxygen: 71.08 ± 14.74 mmHg
  arterial blood pH: 7.42 ± 0.04
[3]; D4
  pathological changes of lungs compared with the model control group: significantly alleviated
[3]; D8
  lung tissue lesions: tended to normal
[4]; D4
  Number of staphylococcus aureus: 633 ± 146 CFU/mL
[4]; D8
  Number of staphylococcus aureus: 113 ± 31 CFU/mL
[4]; read-out: Inhibition rate of staphylococcus aureus, D4
  inhibition at 5000 µg/mL, 18 mg/kg: 87.4%
[4]; read-out: Inhibition rate of staphylococcus aureus, D8
  inhibition at 5000 µg/mL, 18 mg/kg: 96.7%
[5]; D4
  Number of escherichia coli: 447 ± 146 CFU/mL
[5]; D8
  Number of escherichia coli: 80 ± 2 CFU/mL
[5]; read-out: Inhibition rate of escherichia coli, D4
  inhibition at 5000 µg/mL, 18 mg/kg: 85.6%
[5]; read-out: Inhibition rate of escherichia coli, D8
  inhibition at 5000 µg/mL, 18 mg/kg: 91.7%
[6]; D4
  Number of streptococcus pneumoniae: 1223 ± 287 CFU/mL
[6]; D8
  Number of streptococcus pneumoniae: 67 ± 15 CFU/mL
[6]; read-out: Inhibition rate of streptococcus pneumoniae, D4
  inhibition at 5000 µg/mL, 18 mg/kg: 74.1%
[6]; read-out: Inhibition rate of streptococcus pneumoniae, D8
  inhibition at 5000 µg/mL, 18 mg/kg: 95.8%
